# Values quoted from earlier work in US20200038305A1, “Sunscreen or Sunblock Composition” (Divios LLC, priority 2018, published 2020).
smiles,measurement,value
"C=C(C)[C@@H]1CCC(C)=C[C@H]1c1c(O)cc(CCCCC)cc1O [CBD, cannabidiol]",Aqueous solubility,10 µg/mL
